Results as given in patent US4163016A, “16-Substituted prostaglandins” (Hoffmann-La Roche Inc., priority 1977, dated 1979).

Legend:
[1] = system: conscious rat with acute gastric fistula (gastric secretion); assay: Anti-secretory activity in the conscious rat with acute gastric fistula; assay type: in vivo, rat (fasted female rats); conditions: 16 μg/Kg i.v., N 3 (A), 2 (B)
Method: That the compounds of this invention are active as anti-secretory and anti-ulcerogenic agents can be seen by administering the following compounds: Compound A= nat 11R-methyl-16R-fluoro-15R-hydroxy-9-oxo-prost-(Z)-5-enoic acid. Compound b= nat 11R-methyl-16R-fluoro-9,15-dioxo-prost-(Z)-5-enoic acid to rats by the following test:
The compounds were tested as gastric secretory depressants in the unanesthetized rat with acute gastric fistula. […] On the day of the experiment, water infusion through the stomach was begun for a period of 60 minutes prior to drug administration. During this baseline period, the pH of the secretory flow was about 1.5 for each animal. Individual samples were collected at 10-minute intervals during this baseline period to monitor the pH. The compound dissolved in saline was administered intravenously (i.v.), 16 μg/Kg i.v., after this baseline period and samples were continuously collected for 60 minutes. The samples of gastric contents were subsequently assayed for pH, volume, total acid content (μ Eq/ml) and total acid output for 10 minutes (μ Eq/10 minutes).

[2] = system: DOCA-Na Hypertensive Rat Model; assay: Oral activity on systolic blood pressure in the DOCA-Na hypertensive rat model; assay type: in vivo, rat (Charles River male rats); conditions: N 6
Method: That the compounds of this invention are active as blood pressure lowering agents can be seen from the administration of nat. 11R-methyl-16R-fluoro-9,15-dioxoprosta-(Z)-5-(E)-13-dienoic acid to rats by the following test:
Charles River male rats weighing 170-210 grams are used in the present study. DOCA-Na hypertension is induced in these rats by unilateral nephrectomy followed by subcutaneous implantation of a 25 mg deoxycorticosterone acetate pellet. Animals are placed in individual cages and receive 0.9% by weight sodium chloride aqueous solution and rat chow diet ad libitum. Two weeks are allowed to elapse from the time of surgery for development of hypertension, i.e. systolic blood pressure above 150 mmHg. Systolic blood pressure is measured indirectly from the tail of unanesthetized rats (restrained in holders heated for 5-10 minutes at 37°-38° C.) using a pneumatic pulse transducer (piezoelectric crystal and occluding cuff). The transducer and occluding cuff are coupled to a two-channel recorder. Control readings are taken prior to drug and at 1, 3, 6, 24, 48 and 72 hours post administration of drug. All drugs are prepared fresh in a mixture of tris(hydroxymethyl)amino methane in 95% ethanol (5% wt/V) and orally administered to rats. The placebo that was used was the mixture tris(hydroxymethyl)amino methane in ethanol without drug.

[3] = 10 min after administration, rounded figures
[4] = 10 min after administration, rounded, 0 = no effect
[5] = 10 min after administration, rounded, 0 = no effect, or increase in the hydrogen ion concentration
[6] = 20 min after administration, rounded figures
[7] = 20 min after administration, rounded, 0 = no effect
[8] = 30 min after administration, rounded figures
[9] = 40 min after administration, rounded figures
[10] = 50 min after administration, rounded figures
[11] = 60 min after administration, rounded figures
[12] = 60 min after administration, rounded, 0 = no effect

SMILES | Acid Output, % Inhibition (calculated from μ Eq/10 min period of total acid output) [1, 3] [%] | pH, % Increment over baseline [1, 3] [%] | Volume, % Inhibition [1, 4] [%] | Acid Conc., % Inhibition (calculated from μ Eq/ml of total acid concentration) [1, 5] [%] | Acid Conc., % Inhibition (calculated from μ Eq/ml of total acid concentration) [1, 6] [%] | Acid Output, % Inhibition (calculated from μ Eq/10 min period of total acid output) [1, 6] [%] | pH, % Increment over baseline [1, 6] [%] | Volume, % Inhibition [1, 7] [%] | Acid Conc., % Inhibition (calculated from μ Eq/ml of total acid concentration) [1, 8] [%] | Acid Output, % Inhibition (calculated from μ Eq/10 min period of total acid output) [1, 8] [%] | Volume, % Inhibition [1, 8] [%] | pH, % Increment over baseline [1, 8] [%] | Acid Conc., % Inhibition (calculated from μ Eq/ml of total acid concentration) [1, 9] [%] | Acid Output, % Inhibition (calculated from μ Eq/10 min period of total acid output) [1, 9] [%] | Volume, % Inhibition [1, 9] [%] | pH, % Increment over baseline [1, 9] [%] | Acid Conc., % Inhibition (calculated from μ Eq/ml of total acid concentration) [1, 10] [%] | Acid Output, % Inhibition (calculated from μ Eq/10 min period of total acid output) [1, 10] [%] | Volume, % Inhibition [1, 10] [%] | pH, % Increment over baseline [1, 10] [%] | other results
CCCC[C@@H](F)C(=O)CC[C@H]1[C@H](C)CC(=O)[C@@H]1C/C=C\CCCC(=O)O [Compound B, nat 11R-methyl-16R-fluoro-9,15-dioxo-prost-(Z)-5-enoic acid] | 40 | 2 | 9 | 33 | 6 | 22 | 2 | 30 | 11 | 15 | 4 | 2 | 2 | 14 | 11 | 2 | 15 | 20 | 16 | 2 | Acid Conc., % Inhibition (calculated from μ Eq/ml of total acid concentration) [1, 11]: 19%; Acid Output, % Inhibition (calculated from μ Eq/10 min period of total acid output) [1, 11]: 48%; pH, % Increment over baseline [1, 11]: 5%; Volume, % Inhibition [1, 12]: 35%
CCCC[C@@H](F)[C@H](O)CC[C@H]1[C@H](C)CC(=O)[C@@H]1C/C=C\CCCC(=O)O [Compound A, nat 11R-methyl-16R-fluoro-15R-hydroxy-9-oxo-prost-(Z)-5-enoic acid] | 4 | 5 | 0 | 0 | 22 | 17 | 6 | 0 | 20 | 33 | 58 | 4 | 23 | 26 | 21 | 5 | 38 | 43 | 9 | 9 | Acid Conc., % Inhibition (calculated from μ Eq/ml of total acid concentration) [1, 11]: 22%; Acid Output, % Inhibition (calculated from μ Eq/10 min period of total acid output) [1, 11]: 25%; pH, % Increment over baseline [1, 11]: 9%; Volume, % Inhibition [1, 12]: 0%
CCCC[C@@H](F)C(=O)/C=C/[C@H]1[C@H](C)CC(=O)[C@@H]1C/C=C\CCCC(=O)O [nat 11R-methyl-16R-fluoro-9,15-dioxoprosta-5(Z),13(E)-dienoic acid] | – | – | – | – | – | – | – | – | – | – | – | – | – | – | – | – | – | – | – | – | Systolic Blood Pressure ([2]; 1.0 mg/kg p.o., 1 h): 200±6 mmHg; Systolic Blood Pressure ([2]; 1.0 mg/kg p.o., 3 h): 205±6 mmHg; Systolic Blood Pressure ([2]; 1.0 mg/kg p.o., 6 h): 203±8 mmHg; Systolic Blood Pressure ([2]; 1.0 mg/kg p.o., 24 h): 199±6 mmHg; Systolic Blood Pressure ([2]; 1.0 mg/kg p.o., time 0 h (control reading prior to drug)): 196±6 mmHg; Systolic Blood Pressure ([2]; 5.0 mg/kg p.o., 1 h, * p<.05): 175±2 mmHg; Systolic Blood Pressure ([2]; 5.0 mg/kg p.o., 3 h, * p<.05): 167±4 mmHg; Systolic Blood Pressure ([2]; 5.0 mg/kg p.o., 6 h, * p<.05): 166±3 mmHg; Systolic Blood Pressure ([2]; 5.0 mg/kg p.o., 24 h, * p<.05): 163±4 mmHg; Systolic Blood Pressure ([2]; 5.0 mg/kg p.o., 48 h, * p<.05): 171±7 mmHg; Systolic Blood Pressure ([2]; 5.0 mg/kg p.o., 72 h): 193±6 mmHg; Systolic Blood Pressure ([2]; 5.0 mg/kg p.o., time 0 h (control reading prior to drug)): 197±3 mmHg
